Source: US11584744B2 (UNIVERSITY OF WASHINGTON, priority 2017, dated 2023)
≈ marks a conversion by molar mass, not a printed value. Where “and” joins values, the source holds several entries; their conditions need not be identical. Equal values may be shown once. Read-outs that look alike come from different tables or passages of the source.

Columns and labels:
[1] = tested on: S. aureus MSSA (ATCC 29213); assay: MIC susceptibility testing; type: cell-based, Staphylococcus aureus; conditions: S. aureus ATCC 29213; for MIC: Staphylococcus aureus, read-out: (F) S. aureus (ATCC 29213) MIC
C. parvum = C. parvum growth inhibition; type: cell-based, Cryptosporidium parvum; conditions: Cryptosporidium parvum; read-out: (J) C. parvum EC50
MetRS (T. brucei) = target: T1, MetRS (T. brucei) (Trypanosoma brucei brucei, UniProt Q38C91); assay: MetRS (T. brucei) enzyme inhibition; type: biochemical
T1 sequence (Q38C91 1-773): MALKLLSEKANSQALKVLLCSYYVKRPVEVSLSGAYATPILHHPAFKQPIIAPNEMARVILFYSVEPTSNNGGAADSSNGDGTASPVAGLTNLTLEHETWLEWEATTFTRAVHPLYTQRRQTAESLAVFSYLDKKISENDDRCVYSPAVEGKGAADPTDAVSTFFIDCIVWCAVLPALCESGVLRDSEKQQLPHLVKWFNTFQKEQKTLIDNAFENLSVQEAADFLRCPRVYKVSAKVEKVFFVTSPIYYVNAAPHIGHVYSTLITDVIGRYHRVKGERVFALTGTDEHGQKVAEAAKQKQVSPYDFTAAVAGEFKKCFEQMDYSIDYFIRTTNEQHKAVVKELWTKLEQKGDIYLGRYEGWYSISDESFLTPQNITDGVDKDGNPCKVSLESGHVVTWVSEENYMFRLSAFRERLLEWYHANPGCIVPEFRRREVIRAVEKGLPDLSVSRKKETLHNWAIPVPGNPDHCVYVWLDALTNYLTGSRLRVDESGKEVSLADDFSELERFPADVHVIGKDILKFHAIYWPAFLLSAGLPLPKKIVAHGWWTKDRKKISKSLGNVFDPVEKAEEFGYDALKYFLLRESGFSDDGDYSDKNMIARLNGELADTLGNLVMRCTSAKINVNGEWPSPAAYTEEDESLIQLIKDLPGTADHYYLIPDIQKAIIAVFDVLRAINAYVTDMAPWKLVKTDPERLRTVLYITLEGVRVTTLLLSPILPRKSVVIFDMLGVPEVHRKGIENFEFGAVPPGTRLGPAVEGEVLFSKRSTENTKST

[2] = tested on: E. faecium VRE (ATCC 51559); assay: MIC susceptibility testing; type: cell-based, Enterococcus faecium; conditions: E. faecium ATCC 51559; for MIC: Enterococcus faecium, read-out: (I) E. faecium (ATCC 51559) MIC
Text: Media and culture conditions. Mueller Hinton broth (MHB), cation adjusted Mueller Hinton broth (CA-MHB), and Brain Heart Infusion broth (BHI) were purchased from Becton Dickinson (Franklin Lakes, N.J.). Tryptic soy agar (TSA) plates, TSA with 5% sheep blood plates, and CA-MHB with 3% laked horse blood were purchased from Remel (San Diego, Calif.). MHB was used to assay all Staphylococcus aureus strains. CA-MHB was used for Staphylococcus epidermidis, Enterococcus faecalis, Enterococcus faecium, Escherichia coli, and Pseudomonas aeruginosa. CA-MHB supplemented with 3% laked horse blood was used for Streptococcus pneumoniae and Streptococcus pyogenes. Staphylococcus, Enterococcus, Escherichia, and Pseudomonas strains were cultured at 37° C. with ambient air. Streptococcus strains were cultured in 37° C. with 5% CO2. Separate conditions for radiolabeled precursor uptake assays are described below.
Susceptibility testing: Minimum inhibitory concentration (MIC) determinations were performed in triplicate in 96-well round bottom microtiter plates (Corning, Corning N.Y.) as described by the Clinical and Laboratory Standards Institute (CLSI). Serial two-fold dilutions of compounds were added to plates in 50 μL volumes. An additional 50 μL of media containing bacterial cells (1×10^6 CFUs/mL) was then added to each well. Maximum DMSO concentrations were 0.5%. Plates were incubated at 37° C. for at least 18 h before reading the susceptibility result by optical absorbance (OD600) using a BioTek ELx800. The lowest concentration causing ≥90% growth inhibition compared to the untreated control was recorded as the MIC (and also corresponded to the visual MIC). MICs were measured at least twice and the higher value (if different) was recorded herein.

MetRS (C. parvum) = MetRS (C. parvum) (Cryptosporidium parvum, UniProt Q5CVN0); assay: MetRS (C. parvum) enzyme inhibition; type: biochemical; conditions: read-out: (C) MetRS (C. parvum) IC50
Chain of MetRS (C. parvum) (Q5CVN0 entry or part of it): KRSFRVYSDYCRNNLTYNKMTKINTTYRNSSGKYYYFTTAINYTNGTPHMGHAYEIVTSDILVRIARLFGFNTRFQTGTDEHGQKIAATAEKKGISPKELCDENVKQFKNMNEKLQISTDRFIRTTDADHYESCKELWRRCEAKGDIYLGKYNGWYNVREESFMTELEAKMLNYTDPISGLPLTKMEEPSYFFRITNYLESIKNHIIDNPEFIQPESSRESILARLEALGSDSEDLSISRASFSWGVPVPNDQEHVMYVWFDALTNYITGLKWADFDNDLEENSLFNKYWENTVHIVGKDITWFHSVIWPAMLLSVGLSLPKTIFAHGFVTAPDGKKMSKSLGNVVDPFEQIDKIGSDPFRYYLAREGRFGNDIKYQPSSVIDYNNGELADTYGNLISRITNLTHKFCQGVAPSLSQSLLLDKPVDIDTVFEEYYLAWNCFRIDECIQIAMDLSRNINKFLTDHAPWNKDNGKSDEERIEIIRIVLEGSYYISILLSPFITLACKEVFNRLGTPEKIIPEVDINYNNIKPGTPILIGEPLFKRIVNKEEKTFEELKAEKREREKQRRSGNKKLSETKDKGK

T. cruzi = T. cruzi growth inhibition; type: cell-based, Trypanosoma cruzi; conditions: Trypanosoma cruzi; read-out: (E) T. cruzi EC50
T. brucei = T. brucei growth inhibition; type: cell-based, Trypanosoma brucei; conditions: read-out: (D) T. brucei EC50

| (F) S. aureus (ATCC 29213) MIC [1] | MIC [1] | EC50 (C. parvum) | IC50 (MetRS (T. brucei)) | MIC [2] | IC50 (MetRS (C. parvum)) | EC50 (T. cruzi) | EC50 (T. brucei; Trypanosoma brucei) | (I) E. faecium (ATCC 51559) MIC [2] | EC50 (T. brucei) | Structure (SMILES) |
| --- | --- | --- | --- | --- | --- | --- | --- | --- | --- | --- |
| 0.0371 µg/mL | 0.0609 µg/mL (≈ 0.141 µM) | > 2 µM | < 0.04 µM | 0.0246 µg/mL (≈ 0.0569 µM) | < 0.04 µM | 0.133 µM |  |  |  | O=c1n(Cc2nc3ccc(F)nc3[nH]2)cc(Cc2ccc(Cl)cc2Cl)n1C1CC1 [Compound 2070, 3-cyclopropyl-4-[(2,4-dichlorophenyl)methyl]-1-({5-fluoro-1H-imidazo[4,5-b]pyridin-2-yl}methyl)-2,3-dihydro-1H-imidazol-2-one] |
| 1.33, μg/ml and 1.65 μg/ml | 1.72 µg/mL (≈ 3.58 µM) | > 2 µM | < 0.04 µM | 0.512 µg/mL (≈ 1.07 µM) | 0.0457 µM | 0.236 µM | 0.00303 µM | 0.426 µg/mL |  | CC(C)(N)Cn1c(Cc2ccc(Cl)cc2Cl)cn(Cc2nc3nc(Cl)ccc3[nH]2)c1=O [Compound 2212, 5-(2,4-dichlorobenzyl)-1-(2-amin0-2-methylpropyl)-3-((5-chloro-1H-imidazo[4,5-b]pyridin-2-yl)methyl)-1H-imidazol-2(3H)-one] |
| 3.12, μg/ml and 3.27 μg/ml | > 2.5 µg/mL | > 2 µM | < 0.04 µM | 0.691 µg/mL (≈ 1.39 µM) | 0.0593 µM | 2.6 µM | 0.0116 µM |  |  | COC(=O)Cn1c(C(O)c2ccc(Cl)cc2Cl)cn(Cc2nc3ccc(Cl)nc3[nH]2)c1=O (stereo not shown) [Compound 2217, methyl 2-(3-((5-chloro-3H-imidazo[4,5-b]pyridin-2-yl)methyl)-5-((2,4-dichlorophenyl)(hydroxy)methyl)-2-oxo-2,3-dihydro-1H-imidazol-1-yl)acetate] |
| 3.02 µg/mL | > 2.5 µg/mL | 1.84 µM |  | 1.52 µg/mL (≈ 3.17 µM) | 0.0492 µM | 0.245 µM | 0.0145 µM |  | 0.0269 µM | O=c1n(Cc2nc3nc(Cl)ccc3[nH]2)cc(Cc2ccc(Cl)cc2Cl)n1CC1(O)CC1 [Compound 2225, 1-({5-chloro-1H-imidazo[4,5-b]pyridin-2-yl}methyl)-4-[(2,4-dichlorophenyl)-methyl]-3-[(1-hydroxycyclopropyl)methyl]-2,3-dihydro-1H-imidazol-2-one] |
|  |  | > 2 µM |  | 1.98 µg/mL (≈ 4.05 µM) | 0.0408 µM | 0.491 µM | 0.0818 µM | 2.23 µg/mL |  | COc1ccc(Cc2cn(Cc3nc4c(C)c(Cl)ccc4[nH]3)c(=O)n2CC(C)(C)O)c(Cl)c1 [Compound 2248, 4-[(2-chloro-4-methoxyphenyl)methyl]-1-[(5-chloro-4-methyl-1H-1,3-benzodiazol-2-yl)methyl]-3-(2-hydroxy-2-methylpropyl)-2,3-dihydro-1H-imidazol-2-one] |
|  |  |  |  | 1.35 µg/mL (≈ 2.95 µM) |  |  | 0.0289 µM | 1.01 µg/mL |  | COc1ccc(-c2nccn3c(=S)n(Cc4nc5nc(Cl)ccc5[nH]4)cc23)c(Cl)c1 [Compound 2250, 2-({5-chloro-1H-imidazo[4,5-b]pyridin-2-yl}methyl)-8-(2-chloro-4-methoxyphenyl)-2H,3H-imidazo[1,5-a]pyrazine-3-thione] |
|  |  | > 2 µM |  | > 4 µg/mL | < 0.04 µM | 0.811 µM | 0.166 µM |  |  | COc1ccc(-c2cccc3c2CN(Cc2nc4nc(C)nc(N)c4[nH]2)C3=O)c(Cl)c1 [Compound 2251, 2-((6-amin0-2-methyl-7H-purin-8-yl)methyl)-4-(2-chloro-4-methoxyphenyl)isoindolin-1-one] |
